Results as given in ChEMBL document CHEMBL4376820, “Homodimeric Tobramycin Adjuvant Repurposes Novobiocin as an Effective Antibacterial Agent against Gram-Negative Bacteria” (J Med Chem, 2019).
Active and inactive are the calls of the source. The rule behind the calls is not given here.

Assays:
Pseudomonas aeruginosa [1] = assay: Antibacterial activity against carbapenem-resistant Pseudomonas aeruginosa 100036 clinical isolate incubated for 18 hrs by CLSI protocol based assay; format: functional; conditions: Pseudomonas aeruginosa, 100036, 18 h
Pseudomonas aeruginosa [2] = assay: Synergistic antibacterial activity against wild type Pseudomonas aeruginosa PAO1 assessed as potentiation of novobiocin-induced antibacterial effect incubated for 18 hrs by checkerboard assay relative to novobiocin alone; format: functional
Acinetobacter baumannii [3] = assay: Potentiation of novobiocin-induced antibacterial activity against novobiocin and colistin resistant Acinetobacter baumannii ATCC 17978 mutant generated from seven serial passages by checkerboard assay; format: functional, organism-based
Pseudomonas aeruginosa [4] = assay: Synergistic antibacterial activity against wild type Pseudomonas aeruginosa PAO1 assessed as potentiation of ciprofloxacin-induced antibacterial effect incubated for 18 hrs by checkerboard assay relative to ciprofloxacin alone; format: functional
Pseudomonas aeruginosa [5] = assay: Antibacterial activity against carbapenem-resistant Pseudomonas aeruginosa 262-101856 clinical isolate incubated for 18 hrs by CLSI protocol based assay; format: functional; conditions: 262-101856, 18 h
Acinetobacter baumannii [6] = assay: Potentiation of novobiocin-induced antibacterial activity against wild type Acinetobacter baumannii ATCC 17978 assessed as fold reduction in novobiocin MIC incubated for 18 hrs by CLSI protocol based assay relative to novobiocin MIC; format: functional
Klebsiella pneumoniae [7] = assay: Potentiation of novobiocin-induced antibacterial activity against colistin-resistant Klebsiella pneumoniae 113254 clinical isolate assessed as novobiocin MIC at <= 7.1 uM incubated for 18 hrs by CLSI protocol based assay (reference value: 256 ug/ml); format: functional; conditions: Klebsiella pneumoniae, 113254, 18 h
Klebsiella pneumoniae [8] = assay: Potentiation of novobiocin-induced antibacterial activity against Klebsiella pneumoniae 116381 clinical isolate assessed as fold reduction in novobiocin MIC incubated for 18 hrs by CLSI protocol based assay relative to novobiocin MIC; format: functional
HepG2 = assay: Cytotoxicity against human HepG2 cells at 50 uM incubated for 48 hrs by PrestoBlue dye based fluorescence assay; format: cell-based; conditions: hepg2, 48 h
Pseudomonas aeruginosa [9] = assay: Potentiation of novobiocin-induced antibacterial activity against carbapenem and colistin-resistant Pseudomonas aeruginosa 91433 clinical isolate assessed as fold reduction in novobiocin MIC incubated for 18 hrs by CLSI protocol based assay relative to novobiocin MIC; format: functional
Pseudomonas aeruginosa [10] = assay: Synergistic antibacterial activity against wild type Pseudomonas aeruginosa PAO1 assessed as potentiation of moxifloxacin-induced antibacterial effect incubated for 18 hrs by checkerboard assay; format: functional, organism-based
Escherichia coli [11] = assay: Potentiation of novobiocin-induced antibacterial activity against colistin-resistant Escherichia coli 94393 clinical isolate harboring mcr-1 gene assessed as fold reduction in novobiocin MIC incubated for 18 hrs by CLSI protocol based assay relative to novobiocin MIC; format: functional
Escherichia coli [12] = assay: Potentiation of novobiocin-induced antibacterial activity against colistin-resistant Escherichia coli 94393 clinical isolate harboring mcr-1 gene assessed as novobiocin MIC at <= 7.1 uM incubated for 18 hrs by CLSI protocol based assay (reference value: 128 ug/ml); format: functional; conditions: Escherichia coli, 94393, 18 h
Enterobacter cloacae [13] = assay: Antibacterial activity against colistin-resistant Enterobacter cloacae 121187 clinical solate incubated for 18 hrs by CLSI protocol based assay; format: functional; conditions: Enterobacter cloacae, 121187, 18 h
Acinetobacter baumannii [14] = assay: Potentiation of novobiocin-induced antibacterial activity against Acinetobacter baumannii 027 clinical isolate assessed as novobiocin MIC at <= 7.1 uM incubated for 18 hrs by CLSI protocol based assay (reference value: 8 ug/ml); format: functional; conditions: Acinetobacter baumannii, 027, 18 h
Escherichia coli [15] = assay: Antibacterial activity against colistin-resistant Escherichia coli 94474 clinical isolate harboring mcr-1 gene incubated for 18 hrs by CLSI protocol based assay; format: functional; conditions: Escherichia coli, 94474, 18 h
Enterobacter cloacae [16] = assay: Potentiation of novobiocin-induced antibacterial activity against Enterobacter cloacae 117029 clinical solate assessed as fold reduction in novobiocin MIC incubated for 18 hrs by CLSI protocol based assay relative to novobiocin MIC; format: functional
Pseudomonas aeruginosa [17] = assay: Synergistic antibacterial activity against wild type Pseudomonas aeruginosa PAO1 assessed as potentiation of colistin-induced antibacterial effect at <=7.1 uM incubated for 18 hrs by checkerboard assay; format: functional, organism-based
Acinetobacter baumannii [18] = assay: Antibacterial activity against wild type Acinetobacter baumannii ATCC 17978 assessed as resistant development at 7.1 uM measured after 3 days of passaging in presence of novobiocin by microbroth dilution method relative to control; format: functional
Enterobacter cloacae [19] = assay: Potentiation of novobiocin-induced antibacterial activity against Enterobacter cloacae 117029 clinical solate assessed as novobiocin MIC at <= 7.1 uM incubated for 18 hrs by CLSI protocol based assay (reference value: 1024 ug/ml); format: functional; conditions: Enterobacter cloacae, 117029, 18 h
Pseudomonas aeruginosa [20] = assay: Synergistic antibacterial activity against wild type Pseudomonas aeruginosa PAO1 assessed as potentiation of ceftazidime-induced antibacterial effect incubated for 18 hrs by checkerboard assay; format: functional, organism-based
Pseudomonas aeruginosa [21] = assay: Potentiation of novobiocin-induced antibacterial activity against mexAB-oprM/mexCD-oprJ/mexEF-oprN/mexJK/mexXY/opmH mutant deficient Pseudomonas aeruginosa PAO750 assessed as novobiocin MIC at <= 7.1 uM incubated for 18 hrs by CLSI protocol based assay (reference value: 32 ug/ml); format: functional; conditions: PAO750, 18 h
Pseudomonas aeruginosa [22] = assay: Potentiation of novobiocin-induced antibacterial activity against carbapenem-resistant Pseudomonas aeruginosa 259-96918 clinical isolate assessed as fold reduction in novobiocin MIC incubated for 18 hrs by CLSI protocol based assay relative to novobiocin MIC; format: functional
Acinetobacter baumannii [23] = assay: Antibacterial activity against colistin-resistant Acinetobacter baumannii ATCC 17978 mutant generated from seven serial passages by checkerboard assay; format: functional
Pseudomonas aeruginosa [24] = assay: Synergistic antibacterial activity against wild type Pseudomonas aeruginosa PAO1 assessed as potentiation of linezolid-induced antibacterial effect incubated for 18 hrs by checkerboard assay; format: functional, organism-based
Pseudomonas aeruginosa [25] = assay: Synergistic antibacterial activity against wild type Pseudomonas aeruginosa PAO1 assessed as potentiation of ceftazidime-induced antibacterial effect incubated for 18 hrs by checkerboard assay relative to ceftazidime alone; format: functional
Pseudomonas aeruginosa [26] = assay: Synergistic antibacterial activity against wild type Pseudomonas aeruginosa PAO1 assessed as potentiation of minocycline-induced antibacterial effect incubated for 18 hrs by checkerboard assay; format: functional, organism-based
Pseudomonas aeruginosa [27] = assay: Antibacterial activity against mexAB-oprM mutant deficient Pseudomonas aeruginosa PAO200 incubated for 18 hrs by CLSI protocol based assay; format: functional; conditions: PAO200, 18 h
Pseudomonas aeruginosa [28] = assay: Synergistic antibacterial activity against wild type Pseudomonas aeruginosa PAO1 assessed as potentiation of vancomycin-induced antibacterial effect at <=7.1 uM incubated for 18 hrs by checkerboard assay; format: functional, organism-based
Pseudomonas aeruginosa [29] = assay: Potentiation of novobiocin-induced antibacterial activity against carbapenem and colistin-resistant Pseudomonas aeruginosa 114228 clinical isolate assessed as novobiocin MIC at <= 7.1 uM incubated for 18 hrs by CLSI protocol based assay (reference value: 512 ug/ml); format: functional; conditions: Pseudomonas aeruginosa, 114228, 18 h
Escherichia coli [30] = assay: Potentiation of novobiocin-induced antibacterial activity against colistin-resistant Escherichia coli 94474 clinical isolate harboring mcr-1 gene assessed as novobiocin MIC at <= 7.1 uM incubated for 18 hrs by CLSI protocol based assay (reference value: 256 ug/ml); format: functional; conditions: Escherichia coli, 94474, 18 h
Pseudomonas aeruginosa [31] = assay: Antibacterial activity against carbapenem-resistant Pseudomonas aeruginosa 101885 clinical isolate incubated for 18 hrs by CLSI protocol based assay; format: functional; conditions: Pseudomonas aeruginosa, 101885, 18 h
[32] = Toxicity in Galleria mellonella larvae MDR Acinetobacter baumannii isolate assessed as larvae protection at 50 mg/kg in combination with novobiocin measured after 24 to 96 hrs relative to control; format: ADME, organism-based; conditions: in vivo

For NC[C@H]1O[C@H](O[C@H]2[C@H](OCCCCc3cn(CCCCO[C@@H]4[C@@H](O[C@H]5O[C@H](CO)[C@@H](O)[C@H](N)[C@H]5O)[C@H](N)C[C@H](N)[C@H]4O[C@H]4O[C@H](CN)[C@@H](O)C[C@H]4N)nn3)[C@@H](O[C@H]3O[C@H](CO)[C@@H](O)[C@H](N)[C@H]3O)[C@H](N)C[C@@H]2N)[C@H](N)C[C@@H]1O.O=C(O)C(F)(F)F.O=C(O)C(F)(F)F.O=C(O)C(F)(F)F.O=C(O)C(F)(F)F.O=C(O)C(F)(F)F.O=C(O)C(F)(F)F.O=C(O)C(F)(F)F.O=C(O)C(F)(F)F.O=C(O)C(F)(F)F.O=C(O)C(F)(F)F, the MIC (Pseudomonas aeruginosa [1]) was greater than 128 µg/mL, the “fold change (FC)” value (Pseudomonas aeruginosa [2]) was 4 - 128 and the Activity (Acinetobacter baumannii [3]) was “inactive”. For the same compound, the “fold change (FC)” value (Pseudomonas aeruginosa [4]) was 4 - 128, the MIC (Pseudomonas aeruginosa [5]) was greater than 128 µg/mL and the Ratio (Acinetobacter baumannii [6]) was 32. For the same compound, the MIC (Klebsiella pneumoniae [7]) was 16 µg/mL, the Ratio (Klebsiella pneumoniae [8]) was 128 and the Activity (HepG2) was “Non-Toxic”. For the same compound, the Ratio (Pseudomonas aeruginosa [9]) was 16, the Activity (Pseudomonas aeruginosa [10]) was “Dose-dependent effect” and the Ratio (Escherichia coli [11]) was 64. It also gave an MIC (Escherichia coli [12]) of 2 µg/mL, an MIC (Enterobacter cloacae [13]) greater than 128 µg/mL and an MIC (Acinetobacter baumannii [14]) of 0.5 µg/mL. For the same compound, the MIC (Escherichia coli [15]) was greater than 128 µg/mL, the Ratio (Enterobacter cloacae [16]) was 128 and the Activity (Pseudomonas aeruginosa [17]) was “inactive”. The “fold change (FC)” value (Acinetobacter baumannii [18]) was 4, the MIC (Enterobacter cloacae [19]) was 8 µg/mL and the Activity (Pseudomonas aeruginosa [20]) was “Dose-dependent effect”. It also gave an MIC (Pseudomonas aeruginosa [21]) of 0.125 µg/mL, a Ratio (Pseudomonas aeruginosa [22]) of 64 and an MIC (Acinetobacter baumannii [23]) of less than 0.031 µg/mL. For the same compound, the Activity (Pseudomonas aeruginosa [24]) was “Dose-dependent effect”, the “fold change (FC)” value (Pseudomonas aeruginosa [25]) was 4 - 128 and the Activity (Pseudomonas aeruginosa [26]) was “Dose-dependent effect”. For the same compound, the MIC (Pseudomonas aeruginosa [27]) was greater than 128 µg/mL, the Activity (Pseudomonas aeruginosa [28]) was “inactive” and the MIC (Pseudomonas aeruginosa [29]) was 16 µg/mL. It also gave an MIC (Escherichia coli [30]) of 16 µg/mL, an MIC (Pseudomonas aeruginosa [31]) greater than 128 µg/mL and an Activity [32] of 80%.
